Data taken from PubChem BioAssay (NCI).
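Assay format: 96-well plates, 48-hour exposure. The concentration for 50% growth inhibition is given as GI50. The concentration for full growth arrest is given as TGI.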

How the values were obtained:
Assay in all cases: inhibition of tumour cell growth, NCI panel, 48 h
MDA-MB-231 breast = system: MDA-MB-231 breast
SNB-19 CNS = system: SNB-19 CNS
SK-MEL-2 melanoma = system: SK-MEL-2 melanoma
ACHN renal = system: ACHN renal
HCT-116 colon = system: HCT-116 colon
NCI-H226 lung = system: NCI-H226 lung
OVCAR-8 ovarian = system: OVCAR-8 ovarian
MOLT-4 leukemia = system: MOLT-4 leukemia
U251 CNS = system: U251 CNS
K-562 leukemia = system: K-562 leukemia
SN12C renal = system: SN12C renal
KM12 colon = system: KM12 colon
SK-MEL-28 melanoma = system: SK-MEL-28 melanoma
SNB-75 CNS = system: SNB-75 CNS
CCRF-CEM leukemia = system: CCRF-CEM leukemia
MALME-3M melanoma = system: MALME-3M melanoma
OVCAR-3 ovarian = system: OVCAR-3 ovarian
LOX IMVI melanoma = system: LOX IMVI melanoma
HL-60(TB) leukemia = system: HL-60(TB) leukemia
TK-10 renal = system: TK-10 renal
SF-539 CNS = system: SF-539 CNS
SK-MEL-5 melanoma = system: SK-MEL-5 melanoma
SF-295 CNS = system: SF-295 CNS
UACC-62 melanoma = system: UACC-62 melanoma
MDA-MB-435 = system: MDA-MB-435
HOP-92 NSCLC = system: HOP-92 NSCLC
SW-620 colon = system: SW-620 colon
RPMI-8226 leukemia = system: RPMI-8226 leukemia
IGROV1 ovarian = system: IGROV1 ovarian
M14 melanoma = system: M14 melanoma
HS 578T breast = system: HS 578T breast
SK-OV-3 ovarian = system: SK-OV-3 ovarian
UACC-257 melanoma = system: UACC-257 melanoma
NCI-H460 lung = system: NCI-H460 lung
BT-549 breast = system: BT-549 breast
A549 NSCLC = system: A549 NSCLC
MCF7 breast = system: MCF7 breast
HCT-15 colon = system: HCT-15 colon
A498 renal = system: A498 renal
NCI/ADR-RES ovarian = system: NCI/ADR-RES ovarian
OVCAR-4 ovarian = system: OVCAR-4 ovarian
HT29 colon = system: HT29 colon
NCI-H522 lung = system: NCI-H522 lung
OVCAR-5 ovarian = system: OVCAR-5 ovarian
HCC-2998 colon = system: HCC-2998 colon
PC-3 prostate = system: PC-3 prostate
786-0 renal = system: 786-0 renal
COLO 205 colon = system: COLO 205 colon
DU-145 prostate = system: DU-145 prostate
UO-31 renal = system: UO-31 renal
SF-268 CNS = system: SF-268 CNS
CAKI-1 renal = system: CAKI-1 renal
T-47D breast = system: T-47D breast
EKVX NSCLC = system: EKVX NSCLC

Q: How did the GI50 (MDA-MB-231 breast) turn out when `OCCNc1ncnc2c1ncn2Cc1cccc(COc2cccc(OCc3cccc(Cn4cnc5c(NCCO)ncnc54)c3)c2)c1` was run?
A: Its GI50 is 14.5 µM.

Q: And the TGI (MDA-MB-231 breast)?
A: The TGI was 29.3 µM.

Q: What about the GI50 (SNB-19 CNS) of the same compound?
A: The GI50 was 15.4 µM.

Q: What about the TGI (SNB-19 CNS) of the same compound?
A: Its TGI is 30.4 µM.

Q: And the GI50 (SK-MEL-2 melanoma)?
A: Its GI50 is 16 µM.

Q: And the TGI (SK-MEL-2 melanoma)?
A: Its TGI is 35.2 µM.

Q: What about the GI50 (ACHN renal) of the same compound?
A: The GI50 was 20.7 µM.

Q: And the TGI (ACHN renal)?
A: The TGI was 43.2 µM.

Q: What about the GI50 (HCT-116 colon) of the same compound?
A: The GI50 was 10.2 µM.

Q: What about the TGI (HCT-116 colon) of the same compound?
A: The TGI was 22.3 µM.

Q: And the GI50 (NCI-H226 lung)?
A: The GI50 was 15.5 µM.

Q: What about the TGI (NCI-H226 lung) of the same compound?
A: The TGI was 33.3 µM.

Q: What about the GI50 (OVCAR-8 ovarian) of the same compound?
A: The GI50 was 18.5 µM.

Q: What about the TGI (OVCAR-8 ovarian) of the same compound?
A: The TGI was 38.1 µM.

Q: And the GI50 (MOLT-4 leukemia)?
A: The GI50 was 11.8 µM.

Q: What about the TGI (MOLT-4 leukemia) of the same compound?
A: The TGI was 32.4 µM.

Q: What about the GI50 (U251 CNS) of the same compound?
A: The GI50 was 12.3 µM.

Q: And the TGI (U251 CNS)?
A: Its TGI is 24.7 µM.

Q: And the GI50 (K-562 leukemia)?
A: Its GI50 is 8.01 µM.

Q: What about the TGI (K-562 leukemia) of the same compound?
A: Its TGI is 35.8 µM.

Q: And the GI50 (SN12C renal)?
A: Its GI50 is 17 µM.

Q: And the TGI (SN12C renal)?
A: Its TGI is 34.5 µM.

Q: And the GI50 (KM12 colon)?
A: Its GI50 is 13.3 µM.

Q: And the TGI (KM12 colon)?
A: The TGI was 38.8 µM.

Q: What about the GI50 (SK-MEL-28 melanoma) of the same compound?
A: The GI50 was 14.6 µM.

Q: And the TGI (SK-MEL-28 melanoma)?
A: The TGI was 28.4 µM.

Q: And the GI50 (SNB-75 CNS)?
A: The GI50 was 12.3 µM.

Q: And the TGI (SNB-75 CNS)?
A: Its TGI is 27.4 µM.

Q: What about the GI50 (CCRF-CEM leukemia) of the same compound?
A: Its GI50 is 11.3 µM.

Q: And the TGI (CCRF-CEM leukemia)?
A: Its TGI is 33.1 µM.

Q: And the GI50 (MALME-3M melanoma)?
A: Its GI50 is 17.2 µM.

Q: And the TGI (MALME-3M melanoma)?
A: The TGI was 38.3 µM.

Q: What about the GI50 (OVCAR-3 ovarian) of the same compound?
A: The GI50 was 17.6 µM.

Q: And the TGI (OVCAR-3 ovarian)?
A: Its TGI is 36.7 µM.

Q: And the GI50 (LOX IMVI melanoma)?
A: Its GI50 is 14.5 µM.

Q: What about the TGI (LOX IMVI melanoma) of the same compound?
A: Its TGI is 30.1 µM.

Q: And the GI50 (HL-60(TB) leukemia)?
A: Its GI50 is 10.6 µM.

Q: What about the TGI (HL-60(TB) leukemia) of the same compound?
A: The TGI was 29.3 µM.

Q: What about the GI50 (TK-10 renal) of the same compound?
A: The GI50 was 14.7 µM.

Q: What about the TGI (TK-10 renal) of the same compound?
A: Its TGI is 29.9 µM.

Q: And the GI50 (SF-539 CNS)?
A: The GI50 was 11.5 µM.

Q: What about the TGI (SF-539 CNS) of the same compound?
A: Its TGI is 25.4 µM.

Q: And the GI50 (SK-MEL-5 melanoma)?
A: The GI50 was 16.7 µM.

Q: What about the TGI (SK-MEL-5 melanoma) of the same compound?
A: The TGI was 31 µM.

Q: And the GI50 (SF-295 CNS)?
A: The GI50 was 13 µM.

Q: And the TGI (SF-295 CNS)?
A: The TGI was 31.8 µM.

Q: What about the GI50 (UACC-62 melanoma) of the same compound?
A: Its GI50 is 17 µM.

Q: And the TGI (UACC-62 melanoma)?
A: The TGI was 33.8 µM.

Q: And the GI50 (MDA-MB-435)?
A: The GI50 was 14.9 µM.

Q: What about the TGI (MDA-MB-435) of the same compound?
A: The TGI was 35.7 µM.

Q: What about the GI50 (HOP-92 NSCLC) of the same compound?
A: The GI50 was 7.61 µM.

Q: And the TGI (HOP-92 NSCLC)?
A: The TGI was 23.6 µM.

Q: What about the GI50 (SW-620 colon) of the same compound?
A: Its GI50 is 11.8 µM.

Q: What about the TGI (SW-620 colon) of the same compound?
A: The TGI was 24.9 µM.

Q: What about the GI50 (RPMI-8226 leukemia) of the same compound?
A: Its GI50 is 6.47 µM.

Q: And the TGI (RPMI-8226 leukemia)?
A: Its TGI is 27.8 µM.

Q: What about the GI50 (IGROV1 ovarian) of the same compound?
A: Its GI50 is 12.9 µM.

Q: And the TGI (IGROV1 ovarian)?
A: Its TGI is 37.4 µM.

Q: And the GI50 (M14 melanoma)?
A: The GI50 was 17.2 µM.

Q: And the TGI (M14 melanoma)?
A: The TGI was 33.3 µM.

Q: And the GI50 (HS 578T breast)?
A: The GI50 was 11.8 µM.

Q: What about the TGI (HS 578T breast) of the same compound?
A: Its TGI is 28.7 µM.

Q: What about the GI50 (SK-OV-3 ovarian) of the same compound?
A: Its GI50 is > 100 µM.

Q: What about the TGI (SK-OV-3 ovarian) of the same compound?
A: Its TGI is > 100 µM.

Q: What about the GI50 (UACC-257 melanoma) of the same compound?
A: Its GI50 is 18.4 µM.

Q: And the TGI (UACC-257 melanoma)?
A: The TGI was 36.1 µM.

Q: And the GI50 (NCI-H460 lung)?
A: The GI50 was 15.1 µM.

Q: What about the TGI (NCI-H460 lung) of the same compound?
A: Its TGI is 29 µM.

Q: What about the GI50 (BT-549 breast) of the same compound?
A: Its GI50 is 11.9 µM.

Q: What about the TGI (BT-549 breast) of the same compound?
A: The TGI was 25.9 µM.

Q: What about the GI50 (A549 NSCLC) of the same compound?
A: The GI50 was 24.9 µM.

Q: What about the TGI (A549 NSCLC) of the same compound?
A: The TGI was 50.7 µM.

Q: And the GI50 (MCF7 breast)?
A: The GI50 was 12.6 µM.

Q: What about the TGI (MCF7 breast) of the same compound?
A: Its TGI is 26.1 µM.

Q: What about the GI50 (HCT-15 colon) of the same compound?
A: Its GI50 is 30.9 µM.

Q: What about the TGI (HCT-15 colon) of the same compound?
A: Its TGI is > 100 µM.

Q: What about the GI50 (A498 renal) of the same compound?
A: Its GI50 is 14.9 µM.

Q: And the TGI (A498 renal)?
A: Its TGI is 28.9 µM.

Q: What about the GI50 (NCI/ADR-RES ovarian) of the same compound?
A: The GI50 was > 100 µM.

Q: What about the TGI (NCI/ADR-RES ovarian) of the same compound?
A: Its TGI is > 100 µM.

Q: What about the GI50 (OVCAR-4 ovarian) of the same compound?
A: Its GI50 is 14.7 µM.

Q: What about the TGI (OVCAR-4 ovarian) of the same compound?
A: Its TGI is 34.2 µM.

Q: And the GI50 (HT29 colon)?
A: Its GI50 is 4.05 µM.

Q: What about the TGI (HT29 colon) of the same compound?
A: The TGI was 16.5 µM.

Q: What about the GI50 (NCI-H522 lung) of the same compound?
A: The GI50 was 12.5 µM.

Q: What about the TGI (NCI-H522 lung) of the same compound?
A: Its TGI is 31.8 µM.

Q: And the GI50 (OVCAR-5 ovarian)?
A: The GI50 was 20.2 µM.

Q: And the TGI (OVCAR-5 ovarian)?
A: The TGI was 36.8 µM.

Q: What about the GI50 (HCC-2998 colon) of the same compound?
A: Its GI50 is 15.1 µM.

Q: And the TGI (HCC-2998 colon)?
A: Its TGI is 33.6 µM.

Q: What about the GI50 (PC-3 prostate) of the same compound?
A: Its GI50 is 14.5 µM.

Q: What about the TGI (PC-3 prostate) of the same compound?
A: The TGI was 30.4 µM.

Q: What about the GI50 (786-0 renal) of the same compound?
A: Its GI50 is 15.5 µM.

Q: What about the TGI (786-0 renal) of the same compound?
A: The TGI was 30.3 µM.

Q: And the GI50 (COLO 205 colon)?
A: Its GI50 is 13.5 µM.

Q: And the TGI (COLO 205 colon)?
A: Its TGI is 32.2 µM.

Q: What about the GI50 (DU-145 prostate) of the same compound?
A: The GI50 was 16.7 µM.

Q: What about the TGI (DU-145 prostate) of the same compound?
A: The TGI was 32.5 µM.

Q: And the GI50 (UO-31 renal)?
A: Its GI50 is 23.1 µM.

Q: And the TGI (UO-31 renal)?
A: Its TGI is 56.6 µM.

Q: And the GI50 (SF-268 CNS)?
A: The GI50 was 16.4 µM.

Q: And the TGI (SF-268 CNS)?
A: The TGI was 32.7 µM.

Q: What about the GI50 (CAKI-1 renal) of the same compound?
A: The GI50 was 18.4 µM.

Q: What about the TGI (CAKI-1 renal) of the same compound?
A: Its TGI is 42.1 µM.

Q: What about the GI50 (T-47D breast) of the same compound?
A: The GI50 was 16 µM.

Q: What about the TGI (T-47D breast) of the same compound?
A: Its TGI is 33.4 µM.

Q: What about the GI50 (EKVX NSCLC) of the same compound?
A: The GI50 was 14.3 µM.

Q: What about the TGI (EKVX NSCLC) of the same compound?
A: Its TGI is 29 µM.
